Experimental findings from ChEMBL document CHEMBL5303573, “Mapping human microbiome drug metabolism by gut bacteria and their genes” (Nature, 2019) are described below.

A short description of data set [1]: The drug is tested on Bacteroides caccae strain: ATCC43185 for biotransformation. The drug concentrations were measured before and after a 12-h incubation by liquid-chromatography-coupled mass spectrometry (LC–MS). As to conditions: 2 µM.
The conditions of data set [2]: akkermansia muciniphila, 12 h, 2 µM.
Description: The drug is tested on Akkermansia muciniphila strain: ATCC BAA-835 for biotransformation. The drug concentrations were measured before and after a 12-h incubation by liquid-chromatography-coupled mass spectrometry (LC–MS)
For data set [3] the following is noted: segatella copri, 12 h, 2 µM.
Description: The drug is tested on Prevotella copri strain: DSM18205 for biotransformation. The drug concentrations were measured before and after a 12-h incubation by liquid-chromatography-coupled mass spectrometry (LC–MS)
Data set [4] is described as follows: The drug is tested on Bacteroides sp. WH2 strain: WH2 for biotransformation. The drug concentrations were measured before and after a 12-h incubation by liquid-chromatography-coupled mass spectrometry (LC–MS). As to conditions: bacteroides sp. wh2, 12 h, 2 µM.
For data set [5] the following is noted: bacteroides thetaiotaomicron, 12 h, 2 µM.
Description: The drug is tested on Bacteroides thetaiotaomicron strain: 3731 for biotransformation. The drug concentrations were measured before and after a 12-h incubation by liquid-chromatography-coupled mass spectrometry (LC–MS)
Data set [6] can be described thus: The drug is tested on Odoribacter splanchnicus strain: fecal isolate for biotransformation. The drug concentrations were measured before and after a 12-h incubation by liquid-chromatography-coupled mass spectrometry (LC–MS). As to conditions: 2 µM.
A short description of data set [7]: The drug is tested on Anaerococcus hydrogenalis strain: DSM7454 for biotransformation. The drug concentrations were measured before and after a 12-h incubation by liquid-chromatography-coupled mass spectrometry (LC–MS). As to conditions: 2 µM.
The conditions of data set [8]: bacteroides intestinalis, 12 h, 2 µM.
Description: The drug is tested on Bacteroides intestinalis strain: DSM17393 for biotransformation. The drug concentrations were measured before and after a 12-h incubation by liquid-chromatography-coupled mass spectrometry (LC–MS)
Data set [9] is described as follows: The drug is tested on Bacteroides fragilis strain: HMW615 for biotransformation. The drug concentrations were measured before and after a 12-h incubation by liquid-chromatography-coupled mass spectrometry (LC–MS). As to conditions: 2 µM.
Data set [10] is described as follows: The drug is tested on Parabacteroides merdae strain: ATCC43184 for biotransformation. The drug concentrations were measured before and after a 12-h incubation by liquid-chromatography-coupled mass spectrometry (LC–MS). The settings on record: 2 µM.
A short description of data set [11]: The drug is tested on Bacteroides finegoldii strain: DSM17565 for biotransformation. The drug concentrations were measured before and after a 12-h incubation by liquid-chromatography-coupled mass spectrometry (LC–MS). As to conditions: 2 µM.
Data set [12] can be described thus: The drug is tested on Bifidobacterium longum subsp. Infantis strain: CCUG52486 for biotransformation. The drug concentrations were measured before and after a 12-h incubation by liquid-chromatography-coupled mass spectrometry (LC–MS). As to conditions: 2 µM.
The nature of data set [13]: The drug is tested on Blautia luti strain: DSM14534 for biotransformation. The drug concentrations were measured before and after a 12-h incubation by liquid-chromatography-coupled mass spectrometry (LC–MS). Set-up: dose 2 uM, timepoint 0 vs 12 hours. The class given is ADME. As to conditions: 2 µM.
For data set [14] the following is noted: limosilactobacillus reuteri cf48-3a, 12 h, 2 µM.
Description: The drug is tested on Lactobacillus reuteri CF48-3A strain: BEI HM-102 for biotransformation. The drug concentrations were measured before and after a 12-h incubation by liquid-chromatography-coupled mass spectrometry (LC–MS)
Data set [15] in a line: The drug is tested on Providencia stuartii strain: ATCC25827 for biotransformation. The drug concentrations were measured before and after a 12-h incubation by liquid-chromatography-coupled mass spectrometry (LC–MS). The settings on record: 2 µM.
For data set [16] the following is noted: anaerostipes sp., 12 h, 2 µM.
Description: The drug is tested on Anaerostipes sp. strain: fecal isolate for biotransformation. The drug concentrations were measured before and after a 12-h incubation by liquid-chromatography-coupled mass spectrometry (LC–MS)
The conditions of data set [17]: parabacteroides distasonis, 12 h, 2 µM.
Description: The drug is tested on Parabacteroides distasonis strain: ATCC8503 for biotransformation. The drug concentrations were measured before and after a 12-h incubation by liquid-chromatography-coupled mass spectrometry (LC–MS)
Data set [18] can be described thus: The drug is tested on Eubacterium ventriosum strain: ATCC27560 for biotransformation. The drug concentrations were measured before and after a 12-h incubation by liquid-chromatography-coupled mass spectrometry (LC–MS). More on the design: dose 2 uM, timepoint 0 vs 12 hours. As to conditions: 2 µM. It is filed as ADME.
The conditions of data set [19]: parabacteroides johnsonii, 12 h, 2 µM.
Description: The drug is tested on Parabacteroides johnsonii strain: DSM18315 for biotransformation. The drug concentrations were measured before and after a 12-h incubation by liquid-chromatography-coupled mass spectrometry (LC–MS)
Data set [20] can be described thus: The drug is tested on Ruminococcus lactaris strain: ATCC29176 for biotransformation. The drug concentrations were measured before and after a 12-h incubation by liquid-chromatography-coupled mass spectrometry (LC–MS). The settings on record: 2 µM.

As to `CC(Oc1c(Cl)cccc1Cl)C1=NCCN1` (stereo not given) [LOFEXIDINE], the “Bacterial Biotransformation” value in data set [1], in [2], in data set [3], in data set [4], in [5] and in data set [6] was “Compound metabolized” in each case. Further, the “Bacterial Biotransformation” value in data set [7] was “Compound metabolized”; in data set [8], “Compound metabolized”; in data set [9] it was “Compound NOT metabolized”; in data set [10], “Compound metabolized”; in data set [11], “Compound metabolized”; in data set [12] it was “Compound metabolized”. Besides, the “Bacterial Biotransformation” value is on record as “Compound metabolized” in data set [13]; “Compound metabolized” in data set [14]; “Compound metabolized” in data set [15]; “Compound metabolized” in [16]; “Compound NOT metabolized” in data set [17]; “Compound NOT metabolized” in [18]. Besides, the “Bacterial Biotransformation” value in data set [19] and in data set [20] was “Compound metabolized” in each case.

`CN(C)C(=O)Oc1cc(OC(=O)N(C)C)cc(C(O)CNC(C)(C)C)c1` (stereo not given) [BAMBUTEROL]: the “Bacterial Biotransformation” value in [1], in data set [2], in data set [3], in data set [4], in data set [5] and in data set [6] was “Compound NOT metabolized” each time. Moreover, the “Bacterial Biotransformation” value in data set [7], in [8], in data set [9], in data set [10], in data set [11] and in data set [12] was “Compound NOT metabolized” each time. The “Bacterial Biotransformation” value in [13], in data set [14], in data set [15], in data set [16], in [17] and in data set [18] was “Compound NOT metabolized” each time. In addition, the “Bacterial Biotransformation” value in data set [19] and in data set [20] was “Compound NOT metabolized” throughout.

`CCS(=O)(=O)CCn1c([N+](=O)[O-])cnc1C` [TINIDAZOLE]: the “Bacterial Biotransformation” value in [1], in data set [2], in data set [3], in data set [4], in data set [5] and in data set [6] was “Compound metabolized” each time. Moreover, the “Bacterial Biotransformation” value in data set [7], in data set [8], in data set [9], in [10], in [11] and in [12] was “Compound metabolized” throughout. Besides, the “Bacterial Biotransformation” value in [13] is given as “Compound metabolized”; in data set [14], “Compound NOT metabolized”; in [15], “Compound NOT metabolized”; in data set [16] it was “Compound metabolized”; in data set [17], “Compound metabolized”; in data set [18], “Compound metabolized”. Moreover, the “Bacterial Biotransformation” value in [19] and in data set [20] was “Compound metabolized” each time.

`CC(=O)Oc1ccc(C(c2ccc(OC(C)=O)cc2)c2ccccn2)cc1` [BISACODYL]: the “Bacterial Biotransformation” value in data set [1], in [2], in data set [3], in data set [4], in data set [5] and in data set [6] was “Compound metabolized” each time. The “Bacterial Biotransformation” value in data set [7], in data set [8], in data set [9], in data set [10], in data set [11] and in data set [12] was “Compound metabolized” each time. In addition, the “Bacterial Biotransformation” value in [13], in data set [14], in [15], in data set [16], in data set [17] and in [18] was “Compound metabolized” each time. The “Bacterial Biotransformation” value in data set [19] and in data set [20] was “Compound metabolized” in each case.

Regarding `COc1ccnc(C[S+]([O-])c2nc3ccc(OC(F)F)cc3[nH]2)c1OC` (stereo not given) [PANTOPRAZOLE], the “Bacterial Biotransformation” value in data set [1], in data set [2], in data set [3], in [4], in data set [5] and in data set [6] was “Compound metabolized” throughout. In addition, the “Bacterial Biotransformation” value in data set [7], in data set [8], in data set [9], in data set [10], in data set [11] and in data set [12] was “Compound metabolized” throughout. The “Bacterial Biotransformation” value in data set [13], in data set [14], in [15], in [16], in data set [17] and in data set [18] was “Compound metabolized” each time. Besides, the “Bacterial Biotransformation” value in [19] and in data set [20] was “Compound metabolized” each time.

For `CCN(CC)CCOCCOC(=O)C1(c2ccccc2)CCCC1.O=C(O)CC(O)(CC(=O)O)C(=O)O` [CARBETAPENTANE CITRATE], the “Bacterial Biotransformation” value in [1], in data set [2], in data set [3], in data set [4], in data set [5] and in data set [6] was “Compound metabolized” in each case. Further, the “Bacterial Biotransformation” value in data set [7] is listed as “Compound metabolized”; in data set [8] it was “Compound metabolized”; in [9], “Compound NOT metabolized”; in data set [10], “Compound metabolized”; in [11], “Compound metabolized”; in [12], “Compound metabolized”. In addition, the “Bacterial Biotransformation” value in data set [13], in [14], in [15], in [16], in data set [17] and in data set [18] was “Compound metabolized” throughout. Also, the entries for the “Bacterial Biotransformation” value in [19] and in data set [20] were “Compound metabolized” and “Compound NOT metabolized”, respectively.
